pEC50: −log10 of the molar value. “Also recorded” adds a separate entry of the source. Read-outs that look alike come from different tables or passages of the source.
Key:
[1] = test system: HEK-Blue hTLR4 reporter cells; test: MTT cell viability, human TLR4 reporter cells; assay type: cell-based; settings: dose response, % viability normalized to vehicle (0.5% DMSO)
Description: (§1) TLR4/NF-κB activation was assessed using HEK-Blue™ hTLR4 and HEK-Blue™ mTLR4 (InvivoGen). The cells were treated with 1Z105 and 2B182C (2-fold serial dilutions starting from 10 μM) for 20 h. NF-κB inducible secreted embryonic alkaline phosphatase (SEAP) protein in the culture supernatant was measured according to manufacturer's protocol. To evaluate cell viability, 0.5 mg/mL 3-[4,5-dimethylthiazol-2-yl]-2,5-dipheyl tetrazolium bromide (MTT, Thermo Fisher Scientific) solution was added to each well and incubated at 37°C. Six hours later, formazan crystals were lysed with lysis buffer (15% SDS and 0.12% 12 N HCl) and the absorbance was measured at 570 nm using 650 nm as a reference with a plate reader (Tecan, Switzerland).
(§2) Human TLR4 reporter cells Murine TLR4 reporter cells
(§3) [Compound] 1 μM 10 [Compound] 1 μM 10
(§4) Supplementary Figure 1. Dose response curves for cell viability (toxicity) of lead compounds in human and murine TLR4-NF-κB reporter cells. Cellular toxicity evaluated by MTT assay is presented as % viability normalized to vehicle (0.5% DMSO) as 100%. While 1Z105 had minimal toxicity in both hTLR4 and mTLR4 reporter cells (HEK-BlueTM hTLR4 and HEK-BlueTM mTLR4, […]
(§5) (also on this page, place not known: %Relative (Normalized 100%) 101101 viability vehicle as to)

[2] = test system: HEK-Blue mTLR4 reporter cells; test: MTT cell viability, murine TLR4 reporter cells; assay type: cell-based; settings: dose response, % viability normalized to vehicle (0.5% DMSO)
Description: as §1, §2, §3, §4, §5

mBMDCs [3] = test: IL-12 and IL-6 production in mouse BMDCs (ELISA); assay type: cell-based
Description: (§6) Human PBMC (10^6 cells/mL) were treated with 5 μM 1Z105 and 2B182C overnight and the culture supernatant assessed for human IL-8 by ELISA. Mouse BMDCs (10^6 cells/mL) were incubated with serially diluted compounds (2-fold dilution from 5 μM). 0.5% DMSO was used as vehicle. IL-12 and IL-6 levels in the supernatant were measured by ELISA. ELISA was performed as previously described ([57]). Reagents and dilution factors of antibodies are described in Supplementary Table 1.

mouse TLR4 = target: T1, mouse TLR4 (Mus musculus, UniProt Q9JHF9+Q9QUK6); test: TLR4/NF-κB reporter cell assay (SEAP), HEK-Blue mTLR4; assay type: cell-based; settings: for pEC50: 20 h, 2-fold serial dilutions from 10 μM, NF-κB SEAP, read-out: EC50 on mTLR4 reporter cells; for murine TLR4 agonistic activity (in words): AUC normalized to 2B110 as 100%, Figure 1C
T1 construct: host or cells: HEK-Blue mTLR4 (HEK293-derived NF-κB/SEAP reporter cells)
T1 sequence (Q9QUK6 26-835): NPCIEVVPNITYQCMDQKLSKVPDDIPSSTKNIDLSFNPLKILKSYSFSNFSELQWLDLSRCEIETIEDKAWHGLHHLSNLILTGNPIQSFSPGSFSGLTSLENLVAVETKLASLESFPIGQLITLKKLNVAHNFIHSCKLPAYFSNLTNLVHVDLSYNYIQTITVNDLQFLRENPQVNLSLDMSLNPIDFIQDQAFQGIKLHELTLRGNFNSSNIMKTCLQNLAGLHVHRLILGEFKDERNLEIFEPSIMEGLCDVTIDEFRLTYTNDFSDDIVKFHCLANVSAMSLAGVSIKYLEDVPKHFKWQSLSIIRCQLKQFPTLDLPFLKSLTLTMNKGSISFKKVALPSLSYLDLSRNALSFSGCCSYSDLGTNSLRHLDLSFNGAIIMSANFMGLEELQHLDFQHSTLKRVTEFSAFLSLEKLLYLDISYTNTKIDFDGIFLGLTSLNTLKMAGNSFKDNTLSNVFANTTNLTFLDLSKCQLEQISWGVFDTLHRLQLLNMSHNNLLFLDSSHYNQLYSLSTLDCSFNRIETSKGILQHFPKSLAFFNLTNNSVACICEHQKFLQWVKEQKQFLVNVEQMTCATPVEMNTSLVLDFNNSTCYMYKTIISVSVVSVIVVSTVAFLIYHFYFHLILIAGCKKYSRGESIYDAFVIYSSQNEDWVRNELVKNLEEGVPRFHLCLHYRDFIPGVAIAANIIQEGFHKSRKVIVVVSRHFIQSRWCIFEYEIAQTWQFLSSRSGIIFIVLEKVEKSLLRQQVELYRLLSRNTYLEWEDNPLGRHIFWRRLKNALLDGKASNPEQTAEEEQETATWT
T1 sequence (Q9JHF9 19-160): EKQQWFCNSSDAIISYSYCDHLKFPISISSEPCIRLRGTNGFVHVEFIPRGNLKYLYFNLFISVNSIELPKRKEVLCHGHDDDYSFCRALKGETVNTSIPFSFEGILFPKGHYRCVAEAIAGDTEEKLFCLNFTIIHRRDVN
Description: (§7) Figure 1 Structure-activity relationship studies in TLR4 agonistic pyrimidoindoles. (A) Syntheses of C8-alkynyl and C8-alkyl analogs. (B) Syntheses of C8-aryl analogs. (C) Scatter plot of hTLR4 and mTLR4 agonistic activity in TLR4-NF-κB HEK reporter cells (HEK-Blue™ hTLR4 and HEK-Blue™ mTLR4, respectively). NF-κB inducible NF-κB SEAP levels in culture supernatants were measured according to manufacturer's protocol. The TLR4 agonistic potency was evaluated as area under the curve (AUC) calculated for dose response curve using 2-fold serial dilutions from 10 μM, and normalized to the AUC for 2B110 as 100% on both axes. […] The color of each point is based on cell viability in TLR4-NF-κB reporter cells for compounds evaluated at 5 μM concentration. Viability data was normalized to vehicle control (Vehicle OD570−650 = 0.58 ± 0.01). (D) Structures of the lead compounds with differences at C8 substitution highlighted in blue.
(§8) Titration curves of 1Z105 and derivatives were used to assess their potency in stimulating human and mouse TLR4 response using HEK NF-κB reporter cells (HEK-Blue™ hTLR4 and mTLR4, respectively). The areas under the curve for dose response curves relative to vehicle (0.5% DMSO) were normalized to the greatest activity as 100% of 2B110 for both assays (Figure 1C). The compounds were also tested for in vitro toxicity by MTT assay (Figure 1C, Supplementary Figure 1).
as §1

human TLR4 = target: T2, human TLR4 (Homo sapiens, UniProt O00206+Q9Y6Y9); test: TLR4/NF-κB reporter cell assay (SEAP), HEK-Blue hTLR4; assay type: cell-based; settings: for human TLR4 agonistic activity (in words): AUC normalized to 2B110 as 100%, Figure 1C
T2 construct: host or cells: HEK-Blue hTLR4 (HEK293-derived NF-κB/SEAP reporter cells)
Description: as §7, §8, §1

hPBMCs = test: IL-8 release from human PBMC (ELISA); assay type: cell-based; settings: 5 μM, overnight; compared to 1Z105
Description: as §6

[4] = test system: IIAV A/California/04/2009 (H1N1)pdm09 HA and NA; test: Prime-boost vaccination model with IIAV, serum anti-HA/anti-NA IgG ELISA; assay type: in vivo, BALB/c mice; settings: i.m. IIAV 10 μg + adjuvant days 0 and 21, sera day 28; 1V270 1 nmol, TLR4 ligand 200 nmol/injection
[5] = test system: TLR4-NF-κB reporter cells; test: MTT cell viability in TLR4-NF-κB reporter cells; assay type: cell-based; settings: 10 µM, MTT, Supplementary Figure 1
Description: as §7, §1

mBMDCs [6] = test: CD40 and CD86 expression on BMDCs (flow cytometry); assay type: cell-based, mouse; settings: 1 μM, 20 h; compared to 1Z105
Description: Detailed information for reagents used in flow cytometry analysis are shown in Supplementary Table 2. For co-stimulatory molecules on mBMDCs, mBMDCs (10^6 cells/mL) were incubated with 1 μM 1Z105 and 2B182C for 20 h. 0.5% DMSO was uses as vehicle. After removing the supernatant, cells were washed with the stain buffer (BD Biosciences, San Diego, CA) and incubated with anti-mouse CD16/32 antibody for blocking FcR. Cells were then stained with an antibody cocktail with anti-CD40 and anti-CD86 antibodies for 20–30 min at 4°C. For analysis of lymphocytes harvested from draining lymph nodes, two antibody cocktails were prepared; (1) anti-CD3, anti-CD4, anti-PD-1, and anti-CXCR5 antibodies for Tfh cell analysis, (2) anti-CD3, anti-CD19, anti-CD95, anti-CD138, and anti-GL7 antibodies for B cell analysis. After blocking with anti-CD16/CD32 antibody, 2 × 10^6 cells were stained in each antibody cocktail. For Tfh cell analysis, after staining with primary antibodies, cells were washed with PBS, and incubated with streptavidin-PE. Cells were then washed and stained with propidium iodide to determine live/dead cells. Data were acquired using MACSQuant Analyzer 10 (Miltenyi Biotec, Germany) and analyzed using FlowJo (version 10.6.1, Becton Dickinson, Ashland, OR).

[7] = Mus musculus, BMDC, read-out: EC50 for IL-6 production in mBMDCs, 2-fold dilution from 5 μM
[8] = Mus musculus, BMDC, read-out: EC50 for IL-12 production in mBMDCs, 2-fold dilution from 5 μM

T2 sequence (O00206 24-839): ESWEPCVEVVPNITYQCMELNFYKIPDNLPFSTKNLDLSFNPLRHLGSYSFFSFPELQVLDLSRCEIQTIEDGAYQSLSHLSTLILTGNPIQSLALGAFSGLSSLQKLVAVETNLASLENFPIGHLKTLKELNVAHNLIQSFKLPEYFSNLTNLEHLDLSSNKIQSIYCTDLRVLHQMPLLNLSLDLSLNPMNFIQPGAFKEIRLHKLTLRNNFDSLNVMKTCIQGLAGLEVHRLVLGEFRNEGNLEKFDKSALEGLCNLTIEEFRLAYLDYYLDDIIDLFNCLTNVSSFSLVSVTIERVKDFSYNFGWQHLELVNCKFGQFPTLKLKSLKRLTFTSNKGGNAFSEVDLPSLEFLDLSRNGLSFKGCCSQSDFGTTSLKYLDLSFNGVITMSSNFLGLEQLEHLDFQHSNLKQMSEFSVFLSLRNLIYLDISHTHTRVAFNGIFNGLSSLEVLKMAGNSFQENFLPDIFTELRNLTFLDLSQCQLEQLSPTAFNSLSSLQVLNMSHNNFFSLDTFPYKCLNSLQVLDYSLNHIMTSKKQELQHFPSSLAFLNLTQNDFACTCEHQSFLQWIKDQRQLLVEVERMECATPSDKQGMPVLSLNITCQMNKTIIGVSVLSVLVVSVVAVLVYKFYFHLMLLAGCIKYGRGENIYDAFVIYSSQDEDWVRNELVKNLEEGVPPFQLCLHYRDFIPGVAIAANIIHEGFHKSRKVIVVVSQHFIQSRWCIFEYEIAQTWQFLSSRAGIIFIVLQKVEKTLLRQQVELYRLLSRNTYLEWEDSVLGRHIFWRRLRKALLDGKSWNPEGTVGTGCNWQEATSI
T2 sequence (Q9Y6Y9 17-160 limits assumed): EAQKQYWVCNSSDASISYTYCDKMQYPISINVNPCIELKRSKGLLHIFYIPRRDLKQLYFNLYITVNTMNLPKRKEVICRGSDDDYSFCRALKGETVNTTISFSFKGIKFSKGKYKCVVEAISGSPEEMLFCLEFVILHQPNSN

Compound | toxicity, hTLR4 reporter cells (in words) [1] | toxicity, mTLR4 reporter cells (in words) [2] | pEC50 (mBMDCs [3]; [7]) | pEC50 (mBMDCs [3]; [8]) | pEC50 (mouse TLR4) | pEC50 (human TLR4; 20 h, 2-fold serial dilutions from 10 μM, NF-κB SEAP, read-out: EC50 on hTLR4 reporter cells) | human TLR4 agonistic activity (in words) (human TLR4) | human TLR4 agonistic activity (in words) (human TLR4; listed as 8s) | fold more potent than 1Z105, hTLR4 reporter cells (human TLR4; ratio of EC50) | pEC50 (mBMDCs [3]; read-out: EC50 for IL-6 production in mBMDCs, 2-fold dilution from 5 μM) | IL-8 secretion by hPBMCs (in words) (hPBMCs) | murine TLR4 agonistic activity (in words) (mouse TLR4) | murine TLR4 agonistic activity (in words) (mouse TLR4; listed as 8s) | fold more potent than 1Z105, mTLR4 reporter line (mouse TLR4; ratio of EC50) [fold] | serum anti-HA IgG1 (in words) [4] | serum anti-NA IgG1 (in words) [4] | serum anti-NA IgG2a (in words) [4] | toxicity at 10 µM (in words) [5] | CD40 expression on mBMDCs (in words) (mBMDCs [6]) | CD86 expression on mBMDCs (in words) (mBMDCs [6])
Cn1c2ccccc2c2nc(SCC(=O)NC3CCCCC3)n(-c3ccccc3)c(=O)c21 [1Z105, N-cyclohexyl-2-((5-methyl-4-oxo-3-phenyl-4,5-dihydro-3H-pyrimido[5,4-b]indol-2-yl)thio)acetamide] | minimal | minimal | 6.20 | 6.11 | 5.13 |  |  |  |  |  |  |  |  |  |  |  |  |  |  | 
Cn1c2ccc(-c3ccco3)cc2c2nc(SCC(=O)NC3CCCCC3)n(-c3ccccc3)c(=O)c21 [2B182C] |  |  | 6.80 | 6.70 | 5.78 | 5.78 | high TLR4 stimulatory potency | potency equivalent to that of compound 2B110 | approximately 800 fold | 6.92 | higher level of IL-8 secretion | high TLR4 stimulatory potency | potency equivalent to that of compound 2B110 | 4 | significantly increased; also recorded: higher serum anti-HA and anti-NA IgG1 levels compared to 1Z105 | significantly increased; also recorded: higher serum anti-HA and anti-NA IgG1 levels compared to 1Z105 | enhanced | exhibited toxicity | significantly higher expression levels | significantly higher expression levels
